The subject of one test is cGMP-PDE I. Nature of the test: cGMP-PDE I inhibitory activity (cyclic nucleotide hydrolysis, isolated PDE isozyme). Format: biochemical, various animal species and man. The settings on record: for IC50: values marked * are from two separate experimental runs. As for the experimental part:
Multiple isozymic forms of cyclic nucleotide phosphodiesterase (PDE) have been identified in mammalian cells. […] Elevation of intracellular cGMP in vascular smooth muscle triggers a cascade of events that leads to a reduction in muscle tone while elevations in renal tubule cell cGMP stimulates natriuresis and diuresis. Vascular smooth muscle and renal cells contain a phosphodiesterase isozyme that has a low Km (1 μM) for the hydrolysis of cGMP. This isozyme has been referred to as the cGMP-PDE or cGMP-PDE I since it elutes from an anion-exchange sepharose resin in the first peak of PDE activity at a sodium acetate concentration between 150-200 mM. Thus inhibition of the cGMP-PDE isozyme is a viable subcellular mechanism by which increases in cGMP can produce a reduction in total peripheral resistance and a stimulation of natriuresis and diuresis. The development of cGMP-PDE inhibitors represents an approach for the discovery of agents useful for treating heart failure and hypertension. For example, compounds having high inhibitory potency for the cGMP-PDE are expected to lower blood pressure and induce natriuresis and diuresis.
The cGMP-PDE and other PDE isozymes were isolated from cardiovascular tissues (heart and aorta) of various animal species and man by anion-exchange and affinity chromatography as described by Silver et al., Sec. Messeng. Phos. 13:13-25, 1991; PDE activity, in the presence and absence of test compounds was determined essentially as described by Thompson et al., Adv. Cyclic Nucleotide Res. 10:69-92. To determine the potency and selectivity of compounds as PDE inhibitors, compounds are screened for their effect on cyclic nucleotide hydrolysis at 10 μM. If ≥50% inhibition of PDE activity is observed, an IC50 value (concentration of compound causing 50% reduction in PDE activity) and corresponding 95% confidence intervals are generated. The IC50 values are calculated from concentration-response curves as described by Tallarida and Murray, Manual of Pharmacologic Calculations with Computer Programs, Procedure 8, Graded Dose-response, pp. 14-19, Springer-Verlag, N.Y., 1981.

Test [1] has as its system Spontaneously hypertensive rats (SHR). As to the kind of experiment: Antihypertensive activity in conscious spontaneously hypertensive rats (SHR), iv. The settings on record: Rattus norvegicus, 5 min; for change in vivo at 10 mg/kg / change in vivo at 1 mg/kg / change in vivo at 3 mg/kg: 5 minutes after dose, cumulative dosing, read-out: % change in mean arterial pressure; for ED25: read-out: ED25 (mean arterial pressure). Format: in vivo. As for the experimental part: After a 2 day recovery from surgery, three baseline blood pressure measurements were made at 5 min intervals in conscious SHR. Compounds to be tested or vehicle were then administered intravenously in a dose-dependent manner (0.3-10 mg base/kg) while arterial pressure was recorded continuously on a polygraph. The mean arterial pressure response was measured 5 minutes after the administration of each dose of the test compound and the next dose given in a cumulative dose fashion. The response to each dose of the test compound was calculated as the difference from the mean of the three baseline measurements.

Test [2] relates to Spontaneously hypertensive rats. Nature of the test: Procedure 2: in vivo reversal of nitroglycerin tolerance, mean arterial pressure. Details: species or system rat (spontaneously hypertensive rats). Conditions: for change in MAP in response to nitroglycerin injection: nitroglycerin 10 μg/kg i.v. On the procedure:
Spontaneously hypertensive rats (16-19 weeks of age) were made nitroglycerin tolerant by injecting […] nitroglycerin s.c., 3-times/day for 3 days. While conscious and freely moving, the decrease in mean arterial pressure (MAP) in response to a challenge dose of nitroglycerin (10 μg/kg, i.v. bolus) was utilized to confirm tolerance.

Test [3] relates to aortic rings (aortic smooth muscle strips). Nature of the test: Procedure 1: in vitro reversal of nitroglycerin tolerance, relaxation of aortic rings. Format: cell-based, Male Sprague-Dawley rats. The settings on record: Rattus norvegicus, n=8, mean ±S.E.M. On the procedure:
Male Sprague-Dawley rats (250-350 g body weight) were deeply anesthetized with pentobarbital (50 mg/kg) and then euthanized by exsanguination. The thoracic and abdominal cavities were immediately opened and the aorta was removed. In order to remove the influence of endogenous endothelial relaxing factor (EDRF), the entire length of the aorta was functionally denuded of the endothelial layer by gently scraping the luminal surface with a solid polyethylene catheter. The effectiveness of this procedure was tested in each preparation at the end of the experiment by measuring the vasorelaxant response to 1 μM carbachol, a stimulator of EDRF release. […] Maximal change in contractile tension over a series of nine consecutive 10 minute intervals was recorded and expressed as percent relaxation relative to post pre-treatment, phenylephrine-induced tension. Mean EC50 values were calculated from percent relaxation of individual tissues using a statistical program according to Tallarida and Murray, (Manual of Pharmacologic Calculations with Computer Programs, Springer-Verlag, N.Y. 1987) and are expressed as mean ±S.E.M.

The structures appear in SMILES notation. Where “and” joins values, the source holds several entries; their conditions need not be identical. Identical values can stand only once.

By IC50 is commonly meant the concentration that gives 50% inhibition. A high value points to weaker potency. For orientation: EC50 means the midpoint of the concentration-response curve.

`COc1ccc(Cc2[nH]n(C(C)(C)C)c3nc(-c4ccncc4)nc(=O)c2-3)cc1OC` [Example 4e, 1-tert-Butyl-3-(3,4-dimethoxybenzyl)-6-(4-pyridyl) pyrazolo[3,4-d]pyrimidin-4-one]: the “Percent Inhibition cGMP-PDE I” value with cGMP-PDE I (0.01 μM) amounted to 69%. Besides, the IC50 in the test on cGMP-PDE I is 0.006 µM. Besides, in test [1], the change in vivo at 10 mg/kg is -2%.
`Cc1[nH]n(C2CCCC2)c2nc(-c3ccnc4ccccc34)nc(=O)c1-2` [Example 13b, 1-Cyclopentyl-3-methyl-6-(4-quinolinyl)-pyrazolo [3,4-d]-pyrimidin-4-one] had a 50% inhibitory concentration (IC50) in the test on cGMP-PDE I of 0.097 µM. For the same compound, in test [1], the change in vivo at 1 mg/kg was -17% and the change in vivo at 3 mg/kg was -14%.
`Cc1[nH]n(C2CCCC2)c2nc(-c3ccc4ncccc4c3)nc(=O)c1-2` [Example 14c, 1-Cyclopentyl-3-methyl-6-(6-quinolinyl)-pyrazolo [3,4-d]-pyrimidin-4-one] displayed an IC50 with cGMP-PDE I of 0.78 µM. In test [1], the ED25 was found to be 7.8 mg/kg.
With `CCc1nn(C2CCCC2)c2nc(-c3ccncc3)[nH]c(=O)c12` [Example 75], in the test with cGMP-PDE I, the IC50 was 0.45 µM and 0.37 µM. Besides, the ED25 in test [1] was 1.7 mg/kg.
Turning to `Cc1nn(C2CCCC2)c2nc(-c3ccncc3)[nH]c(=O)c12` [Example 83], in the test with cGMP-PDE I, half-maximal inhibition (IC50) was put at 0.37 µM. For the same compound, the ED25 in test [1] was found to be 1 mg/kg. In addition, the “change in MAP at threshold dose of the compound” value in test [2] (1 mg/kg, i.v., threshold dose) is recorded as “approximately 10 mmHg”. Besides, in test [2] (nitroglycerin tolerant rats (n=12), compound 1 mg/kg i.v., then nitroglycerin 10 μg/kg), the “change in MAP in response to nitroglycerin injection after pretreatment with the compound” value is recorded as -35 mmHg.
In the case of `CC(C)(C)n1nc(Cc2ccccc2)c2c(=O)[nH]c(-c3ccncc3)nc21` [Example 90], the change in vivo at 1 mg/kg in test [1] is -6%.
For the compound `Cc1nn(C(C)(C)C)c2nc(-c3ccncc3)[nH]c(=O)c12` [Example 93], the 50% inhibitory concentration (IC50) in the test with cGMP-PDE I is 0.38 µM. Besides, the ED25 in test [1] came to 6.5 mg/kg.
The corresponding values for `Cc1nn(C2CCCC2)c2nc(-c3cccnc3)[nH]c(=O)c12` [Example 98] are 0.56 µM and 4.1 mg/kg.
For `CCOc1cnccc1-c1nc2n(C3CCCC3)[nH]c(CC)c-2c(=O)n1` [Example 119d, 1-Cyclopentyl-3-ethyl-6-(3-ethoxy-4-pyridyl)pyrazolo[3,4-d]pyrimidin-4-one], in the test on cGMP-PDE I (0.1 μM), the “Percent Inhibition cGMP-PDE I” value is given as 90%. 0.0016 µM corresponded to half-maximal inhibition with cGMP-PDE I (IC50). Besides, in test [1], the change in vivo at 3 mg/kg is -24%, the change in vivo at 10 mg/kg is -36% and the ED25 worked out at 4.8 mg/kg.
Take `CC(C)(C)n1[nH]c(Cc2ccncc2)c2c(=O)nc(-c3ccncc3)nc1-2` [Example 123d, 1-tert-butyl-3-(4-pyridylmethyl)-6-(4-pyridyl)-pyrazolo[3,4-d]pyrimidin-4-one]: the entries for the “Percent Inhibition cGMP-PDE I” value in the test on cGMP-PDE I (0.1 μM) and in the test with cGMP-PDE I (1 μM) were 55% and 90%, respectively. Besides, it took 0.12 µM to reach half-maximal inhibition in the test on cGMP-PDE I (IC50). Also, the change in vivo at 10 mg/kg in test [1] was -7%.
In the case of `CCc1nn(C2CCCC2)c2nc(-c3ccnc(OCCN4CCOCC4)c3)[nH]c(=O)c12` [Example 124c, hydrate], the “Percent Inhibition cGMP-PDE I” value in the test with cGMP-PDE I (0.01 μM) is reported as 19%. In addition, the “Percent Inhibition cGMP-PDE I” value in the test with cGMP-PDE I (0.1 μM) is reported as 50%. The “Percent Inhibition cGMP-PDE I” value with cGMP-PDE I (1 μM) came out at 86%. Further, half-maximal inhibition in the test with cGMP-PDE I (IC50) required 0.15 µM. Besides, in test [1], the change in vivo at 3 mg/kg is -14%, the change in vivo at 10 mg/kg is -24% and the ED25 was found to be 10.1 mg/kg.
Take `CCOc1cnccc1-c1nc2n(C3CCCC3)[nH]c(C(F)(F)F)c-2c(=O)n1` [Example 127c, 1-Cyclopentyl-3-trifluoromethyl-6-(3-ethoxy-4-pyridyl)pyrazolo[3,4-d]pyrimidin-4-one]: the “Percent Inhibition cGMP-PDE I” value is listed as 79% with cGMP-PDE I (0.01 μM) and 93% in the test with cGMP-PDE I (0.1 μM). Besides, in the test on cGMP-PDE I, the IC50 is 0.0018 µM and 0.0025 µM. In addition, the change in vivo at 10 mg/kg in test [1] is -14%.
In the case of `CCc1[nH]n(C2CCCC2)c2nc(-c3ccncc3OC)nc(=O)c1-2` [Example 128c, 1-Cyclopentyl-3-ethyl-6-(3-methoxy-4-pyridyl)pyrazolo[3,4-d]pyrimidin-4-one], the “Percent Inhibition cGMP-PDE I” value in the test with cGMP-PDE I (0.01 μM) is given as 54%. For the same compound, the “Percent Inhibition cGMP-PDE I” value with cGMP-PDE I (0.1 μM) is listed as 71%. It took 0.036 µM to reach half-maximal inhibition with cGMP-PDE I (IC50). In test [1], the change in vivo at 10 mg/kg is -48% and the ED25 is 0.23 mg/kg.
For `CCc1[nH]n(C2CCCC2)c2nc(-c3ccncc3OC(C)CC)nc(=O)c1-2` (centres unmarked) [Example 132b, 1-Cyclopentyl-3-ethyl-6-(3-sec-butoxy-4-pyridyl)pyrazolo[3,4-d]pyrimidin-4-one], in the test with cGMP-PDE I (0.01 μM), the “Percent Inhibition cGMP-PDE I” value came to 90%. Besides, in test [1], the change in vivo at 1 mg/kg is -9%, the change in vivo at 3 mg/kg was -8% and the change in vivo at 10 mg/kg is -12%.
For `COc1cnccc1-c1nc2n(C(C)(C)C)[nH]c(Cc3ccncc3)c-2c(=O)n1` [Example 134b, 1-tert-Butyl-3-(4-pyridylmethyl)-6-(3-methoxy-4-pyridyl)pyrazolo[3,4-d]pyrimidin-4-one], the “Percent Inhibition cGMP-PDE I” value is reported as 35% in the test on cGMP-PDE I (0.01 μM) and 55% in the test on cGMP-PDE I (0.1 μM).
As to `COc1cnccc1-c1nc2n(C3CCCC3)[nH]c(C(F)(F)F)c-2c(=O)n1` [Example 135, 1-Cyclopentyl-3-trifluoromethyl-6-(3-methoxy-4-pyridyl)pyrazolo[3,4-d]pyrimidin-4-one], the “Percent Inhibition cGMP-PDE I” value with cGMP-PDE I (0.01 μM) was determined as 36%; in the test with cGMP-PDE I (0.1 μM) it was 68%; in the test with cGMP-PDE I (1 μM) it was 88%.
The like results for `CCc1[nH]n(C(C)(C)C)c2nc(-c3ccncc3OC)nc(=O)c1-2` [Example 136, 1-tert-Butyl-3-ethyl-6-(3-methoxy-4-pyridyl)pyrazolo[3,4-d]pyrimidin-4-one] were, in that order, 28%, 39% and 73%.
In the case of `CCc1[nH]n(C2CCCC2)c2nc(-c3cccnc3)nc(=O)c1-2` [Example 137, 1-Cyclopentyl-3-ethyl-6-(3-pyridyl)pyrazolo[3,4-d]pyrimidin-4-one], the “Percent Inhibition cGMP-PDE I” value in the test on cGMP-PDE I (0.1 μM) was determined as 27%; with cGMP-PDE I (1 μM), 64%.
For `O=[N+]([O-])OCC(CO[N+](=O)[O-])O[N+](=O)[O-]` [nitroglycerin, reference compound], the EC50 in test [3] (1 h, tolerant strips, pre-exposed to 550 μM nitroglycerin for 60 minutes, p <0.01) was 1.55 ± 0.637 µM; in test [3] (vehicle treated, control strips), 0.077 ± 0.016 µM. Also, the “change in MAP in response to nitroglycerin injection” value in test [2] (non-tolerant rats (n=6)) is -19 mmHg; in test [2] (tolerant rats (n=11)), -11 mmHg.

Source of the values: patent publication US5541187A, “6-heterocycyclyl pyrazolo[3,4-d]pyrimidin-4-ones and compositions and method of use thereof” (Sterling Winthrop Inc., priority 1993, dated 1996).
